# Source: the Kinase Knowledgebase extract (Sharma et al. 2016)
# pIC50: −log10 of the molar value.
# Target: PIK3CG (human) (UniProt P48736)
# Assay: Assessment of PIK3CG Kinase Activity
# Chain of PIK3CG (human) (P48736 whole entry, looked up): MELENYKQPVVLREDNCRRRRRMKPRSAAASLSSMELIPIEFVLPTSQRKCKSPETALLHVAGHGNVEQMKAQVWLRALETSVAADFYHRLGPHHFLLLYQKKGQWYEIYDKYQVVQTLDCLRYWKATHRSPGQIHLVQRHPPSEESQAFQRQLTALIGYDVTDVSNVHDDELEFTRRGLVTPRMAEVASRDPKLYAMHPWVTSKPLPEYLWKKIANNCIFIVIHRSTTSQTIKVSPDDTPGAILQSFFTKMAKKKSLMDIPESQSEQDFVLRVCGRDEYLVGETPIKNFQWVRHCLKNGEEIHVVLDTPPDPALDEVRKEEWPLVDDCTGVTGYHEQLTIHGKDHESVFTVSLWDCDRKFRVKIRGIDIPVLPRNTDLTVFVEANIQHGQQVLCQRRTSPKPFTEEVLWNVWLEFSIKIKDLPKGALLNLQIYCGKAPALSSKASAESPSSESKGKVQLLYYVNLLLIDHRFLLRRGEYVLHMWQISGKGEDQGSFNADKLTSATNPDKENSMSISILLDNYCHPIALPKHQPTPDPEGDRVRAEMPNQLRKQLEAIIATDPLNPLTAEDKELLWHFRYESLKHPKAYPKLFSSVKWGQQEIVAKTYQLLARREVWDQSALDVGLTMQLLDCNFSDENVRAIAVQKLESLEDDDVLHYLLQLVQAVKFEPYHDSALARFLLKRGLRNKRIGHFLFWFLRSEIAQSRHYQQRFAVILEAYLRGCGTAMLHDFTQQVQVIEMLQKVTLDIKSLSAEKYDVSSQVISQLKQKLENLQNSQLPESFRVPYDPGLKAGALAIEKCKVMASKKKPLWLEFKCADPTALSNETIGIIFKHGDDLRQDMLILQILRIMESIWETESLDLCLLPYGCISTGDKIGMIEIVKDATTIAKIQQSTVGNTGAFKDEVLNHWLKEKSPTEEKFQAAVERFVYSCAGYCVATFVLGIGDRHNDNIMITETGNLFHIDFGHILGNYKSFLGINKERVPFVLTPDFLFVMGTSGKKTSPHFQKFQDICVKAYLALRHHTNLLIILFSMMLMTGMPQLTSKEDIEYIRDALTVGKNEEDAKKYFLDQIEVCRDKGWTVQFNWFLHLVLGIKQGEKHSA
row,Structure (SMILES),pIC50
1,CNC(=O)c1cccc(CNC(=O)Nc2nc3c(s2)-c2c(c(-c4cccnc4)nn2-c2ccccc2Cl)CC3)c1,> 6.10
2,NC(=O)Nc1nc2c(s1)-c1c(c(-c3cccnc3)nn1-c1ccccc1Cl)CC2,> 6.10
3,CNC(=O)Nc1nc2c(s1)-c1c(c(-c3cccnc3)nn1-c1ccc(S(N)(=O)=O)cc1Cl)CC2,> 6.10
4,O=C(NCCCN1CCNC1=O)Nc1nc2c(s1)-c1c(c(-c3cccnc3)nn1-c1ccccc1Cl)CC2,> 6.10
5,CS(=O)(=O)Nc1cccc(NC(=O)Nc2nc3c(s2)-c2c(c(-c4ccccc4)nn2-c2ccccc2Cl)CC3)c1,> 6.10
6,CN1CCN(CCCNC(=O)Nc2nc3c(s2)-c2c(c(-c4cncnc4)nn2-c2ccccc2F)CC3)CC1,> 6.10
7,CNC(=O)c1cccc(CNC(=O)Nc2nc3c(s2)-c2c(c(-c4cccnc4)nn2C2CCN(C4CCCC4)CC2)CC3)c1,> 6.10
8,CN1CCN(c2ccc(NC(=O)Nc3nc4c(s3)-c3c(c(-c5cncnc5)nn3-c3ccccc3F)CC4)cc2)CC1,> 6.10
9,CS(=O)(=O)Nc1ccc(NC(=O)Nc2nc3c(s2)-c2c(c(-c4ccccc4)nn2-c2ccccc2Cl)CC3)cc1,> 6.10
10,CCc1nnc(CCNC(=O)Nc2nc3c(s2)-c2c(c(-c4cccnc4)nn2-c2ccccc2Cl)CC3)o1,> 6.10
11,COc1ccccc1C1CCN(C(=O)Nc2nc3c(s2)-c2c(c(-c4cccnc4)nn2-c2ccccc2Cl)CC3)C1 (stereo not drawn),> 6.10
12,Cn1cc(CCNC(=O)Nc2nc3c(s2)-c2c(c(-c4ccccc4)nn2-c2ccccc2Cl)CC3)cn1,> 6.10
13,O=C(NC[C@@H]1CCCN1)Nc1nc2c(s1)-c1c(c(-c3cncnc3)nn1-c1ccccc1F)CC2,> 6.10
14,O=C(NCCN1CCNC1=O)Nc1nc2c(s1)-c1c(c(-c3ccccc3)nn1-c1ccccc1Cl)CC2,> 6.10
15,O=C(NCc1cccc(N2CCNC2=O)c1)Nc1nc2c(s1)-c1c(c(-c3cccnc3)nn1-c1ccccc1Cl)CC2,> 6.10
16,O=C(NCCCN1CCOCC1)Nc1nc2c(s1)-c1c(c(-c3cncnc3)nn1-c1ccccc1F)CC2,> 6.10
17,NC(=O)c1cccc(CNC(=O)Nc2nc3c(s2)-c2c(c(-c4cccnc4)nn2-c2ccccc2Cl)CC3)c1,> 6.10
18,CC(C)(C)OC(=O)N1CCN(c2cccc(NC(=O)Nc3nc4c(s3)-c3c(c(-c5cncnc5)nn3-c3ccccc3F)CC4)c2)CC1,> 6.10
19,Cn1cccc1CCNC(=O)Nc1nc2c(s1)-c1c(c(-c3cccnc3)nn1-c1ccccc1Cl)CC2,> 6.10
20,CC(NC(=O)Nc1nc2c(s1)-c1c(c(-c3cccnc3)nn1-c1ccccc1Cl)CC2)c1cccc(NC(=O)OC(C)(C)C)c1 (stereo not drawn),> 6.10

row,Structure (SMILES),pIC50
1,CC(C)c1cnc(CCNC(=O)Nc2nc3c(s2)-c2c(c(-c4cncnc4)nn2-c2ccccc2Cl)CC3)o1,> 6.10
2,O=C(NCCCn1ccnc1)Nc1nc2c(s1)-c1c(c(-c3cncnc3)nn1-c1ccccc1F)CC2,> 6.10
3,CC1(C)NC(=O)N(Cc2ccc(CNC(=O)Nc3nc4c(s3)-c3c(c(-c5cccnc5)nn3-c3ccccc3Cl)CC4)cc2)C1=O,> 6.10
4,CC(=O)Nc1cccc(CNC(=O)Nc2nc3c(s2)-c2c(c(-c4cccnc4)nn2C2CCN(C4CCCC4)CC2)CC3)c1,> 6.10
5,O=C(NCc1ccccc1-n1cccn1)Nc1nc2c(s1)-c1c(c(-c3cccnc3)nn1-c1ccccc1Cl)CC2,> 6.10
6,CN1CCN(C(=O)CCCNC(=O)Nc2nc3c(s2)-c2c(c(-c4ccccc4)nn2-c2ccccc2Cl)CC3)CC1,> 6.10
7,CCN1CCC2(CCN(C(=O)Nc3nc4c(s3)-c3c(c(-c5cccnc5)nn3-c3ccccc3Cl)CC4)C2)C1 (stereo not drawn),> 6.10
8,O=C(NCCn1cc[nH]c1=O)Nc1nc2c(s1)-c1c(c(-c3ccccc3)nn1-c1ccccc1Cl)CC2,> 6.10
9,O=C1CCC(CNC(=O)Nc2nc3c(s2)-c2c(c(-c4cccnc4)nn2-c2ccccc2Cl)CC3)N1 (stereo not drawn),> 6.10
10,O=C(NCCNS(=O)(=O)C1CC1)Nc1nc2c(s1)-c1c(c(-c3ccccc3)nn1-c1ccccc1Cl)CC2,> 6.10
11,CNC(=O)[C@@H]1CCCC[C@H]1NC(=O)Nc1nc2c(s1)-c1c(c(-c3ccccc3)nn1-c1ccccc1Cl)CC2,> 6.10
12,CC(=O)N(C)c1cccc(CNC(=O)Nc2nc3c(s2)-c2c(c(-c4cccnc4)nn2C2CCN(C)CC2)CC3)c1,> 6.10
13,O=C(NC[C@H]1CCN(C(=O)N2CCCCC2)C1)Nc1nc2c(s1)-c1c(c(-c3cncnc3)nn1-c1ccccc1Cl)CC2,> 6.10
14,CC(C)(C)OC(=O)Nc1cccc(CNC(=O)Nc2nc3c(s2)-c2c(c(-c4cccnc4)nn2-c2ccccc2Cl)CC3)c1,> 6.10
15,CN1CCC(n2nc(-c3cccnc3)c3c2-c2sc(NC(=O)NCCc4nc(C5CC5)no4)nc2CC3)CC1,> 6.10
16,CN(C)C(=O)CCCNC(=O)Nc1nc2c(s1)-c1c(c(-c3ccccc3)nn1-c1ccccc1Cl)CC2,> 6.10
17,O=C(Nc1nc2c(s1)-c1c(c(-c3ccccc3)nn1-c1ccccc1Cl)CC2)NC1CCC(NS(=O)(=O)c2ccccc2)CC1 (stereo not drawn),> 6.10
18,CN(C)C(=O)CCNC(=O)Nc1nc2c(s1)-c1c(c(-c3cccnc3)nn1-c1ccccc1Cl)CC2,> 6.10
19,O=C1CCC(CNC(=O)Nc2nc3c(s2)-c2c(c(-c4cncnc4)nn2-c2ccccc2Cl)CC3)N1 (stereo not drawn),> 6.10
20,Cc1ccc(CN2CC(CNC(=O)Nc3nc4c(s3)-c3c(c(-c5cccnc5)nn3-c3ccccc3Cl)CC4)CC2=O)cc1 (stereo not drawn),> 6.10

row,Structure (SMILES),pIC50
1,CCOCCNC(=O)Nc1nc2c(s1)-c1c(c(-c3ccccc3)nn1-c1ccccc1Cl)CC2,> 6.10
2,NC(=O)c1cccc(CNC(=O)Nc2nc3c(s2)-c2c(c(C4CC4)nn2-c2ccccc2Cl)CC3)c1,> 6.10
3,CNC(=O)Nc1nc2c(s1)-c1c(c(-c3ccccc3)nn1-c1cccc(Cl)c1)CC2,> 6.10
4,CC(C)(C)COC(=O)N1CCC[C@@H]1CNC(=O)Nc1nc2c(s1)-c1c(c(-c3cncnc3)nn1-c1ccccc1Cl)CC2,> 6.10
5,CNC(=O)Nc1nc2c(s1)-c1c(c(-c3cncnc3)nn1-c1ccccc1Cl)CC2,> 6.10
6,CS(=O)(=O)NCCNC(=O)Nc1nc2c(s1)-c1c(c(-c3ccccc3)nn1-c1ccccc1Cl)CC2,> 6.10
7,O=C(Nc1nc2c(s1)-c1c(c(-c3cccnc3)nn1-c1ccccc1Cl)CC2)NC1CCC(N2CCNC2=O)CC1 (stereo not drawn),> 6.10
8,CCN1CCC(n2nc(-c3cccnc3)c3c2-c2sc(NC(=O)NCc4cccc(N5CCNC5=O)c4)nc2CC3)CC1,> 6.10
9,CC(C)c1nnc(CCNC(=O)Nc2nc3c(s2)-c2c(c(-c4cncnc4)nn2-c2ccccc2Cl)CC3)o1,> 6.10
10,CN(C)C(=O)Nc1nc2c(s1)-c1c(c(-c3cncnc3)nn1-c1ccccc1Cl)CC2,> 6.10
11,CN1CCN(C(=O)Nc2nc3c(s2)-c2c(cnn2-c2ccccc2)CC3)CC1,> 6.10
12,CCc1cnc(CCNC(=O)Nc2nc3c(s2)-c2c(c(C4CC4)nn2-c2ccccc2Cl)CC3)o1,> 6.10
13,CC(C)c1noc(CCNC(=O)Nc2nc3c(s2)-c2c(c(-c4cccnc4)nn2C2CCN(C)CC2)CC3)n1,> 6.10
14,CN(C)S(=O)(=O)c1ccccc1CNC(=O)Nc1nc2c(s1)-c1c(c(-c3ccccc3)nn1-c1ccccc1Cl)CC2,> 6.10
15,CN(C)C(=O)CNC(=O)Nc1nc2c(s1)-c1c(c(-c3ccccc3)nn1-c1ccccc1Cl)CC2,> 6.10
16,CC(C)(C)OC(=O)N1CCCCC1CNC(=O)Nc1nc2c(s1)-c1c(c(-c3cncnc3)nn1-c1ccccc1Cl)CC2 (stereo not drawn),> 6.10
17,COc1ccc(S(=O)(=O)NCCNC(=O)Nc2nc3c(s2)-c2c(c(-c4ccccc4)nn2-c2ccccc2Cl)CC3)cc1,> 6.10
18,CN1CCC(n2nc(-c3cccnc3)c3c2-c2sc(NC(=O)NCc4cccc(C(N)=O)c4)nc2CC3)CC1,> 6.10
